Data from US20240423981A1, “TREATMENT OF HCM WITH PYRIMIDINEDIONE COMPOUNDS” (MyoKardia, Inc., priority 2017, published 2024).

Assays:
[1] = tested on: healthy men; test: Study Compound 1-002: single ascending-dose (SAD) trial in healthy volunteers; format: in vivo, human
Method: (§1) Three clinical studies have investigated the safety and tolerability of Compound 1 to date; conduct of 2 studies has completed and 1 study is ongoing. A double-blind, placebo-controlled, single ascending-dose study (SAD) (Compound 1-002) was conducted in healthy men. Subjects received single doses ranging from 1 mg to 48 mg. Conduct of an open-label sequential-group SAD study in subjects with clinically stable HCM (Compound 1-001) is also complete; single doses of up to 144 mg were administered. In addition, a double-blind, placebo-controlled, multiple ascending-dose (MAD) study (Compound 1-003) is being conducted in which healthy adult subjects have received multiple doses of Compound 1 up to 25 mg once daily (QD) for up to 28 days.
(§2) In Study Compound 1-002, single doses from 1 mg to 48 mg were administered as an oral suspension to healthy men. […] Single doses of ≥12 mg of Compound 1 were associated with detectable reductions in LV contractility from baseline as assessed by 3 independent echocardiographic measures (left ventricular ejection fraction [LVEF], LV fractional shortening (LVFS), and LVOT velocity time integral [VTI]). At the highest dose studied in healthy subjects (48 mg), mean reduction in LVEF at any time point was −6% relative to baseline.

[2] = Pre-clinical acute or chronic administration, haemodynamics; format: in vivo
[3] = tested on: subjects with symptomatic HCM and LVOT obstruction; test: Phase 2 open-label pilot study Pioneer-HCM-B (Cohort B); format: in vivo, human
Method: (§3) This trial was similar to the trial described in Example 3, but will have several important differences. For example, subjects in the Phase 2-B trial will not be required to discontinue their β-blocker therapy, and the dose of Compound 1 will be reduced to 2 to 5 mg.
The following results were obtained generally following the procedures described in Example 3 and Example 5.

[4] = Parts A and B of the phase 2 trial (PIONEER), pooled findings; format: in vivo, human; details: human, plasma, oral; read-out: concentrations associated with excessive pharmacological effect
Description: This is a phase 2 open-label pilot study to evaluate the efficacy, PK, PD, safety, and tolerability of Compound 1 in subjects with symptomatic HCM and LVOT obstruction. Approximately 10 adult subjects with symptomatic HCM, a resting LVOT gradient ≥30 mm Hg, and post-exercise peak LVOT gradient ≥50 mm Hg will be enrolled. The study will have a 12-week treatment phase and a 4-week washout phase (FIG. 3).
as §3
(§4) Compound 1 concentrations were measured in human plasma using high pressure liquid chromatography (HPLC) coupled with tandem mass spectrometry (MS/MS). This method was used for Compound 1 bioanalysis in all clinical trials to date, and all clinical data has been collected using plasma. A brief description of the method follows.
Liquid-liquid extraction and HPLC/MS/MS was used to determine the concentration of Compound 1 in human plasma. An aliquot of the extract was injected onto an HPLC instrument that is coupled with a triple quadrupole mass spectrometer (Sciex API5500). A Lux 3u Cellulose-4 HPLC column (150×2.0 mm) from […], was used to separate Compound 1, from interfering compounds that may be present in the sample extract. The internal standard was a multi-deuterated analog of Compound 1 to ensure that the internal standard used in the assay had similar chemical properties to the analyte but a different mass for selective detection. The peak area of the product ion of Compound 1 was measured against the peak area of the product ion of the internal standard for determination of concentration.

[5] = tested on: healthy volunteers; test: Adverse events in healthy volunteers of the Phase 1 trials; format: in vivo, human
Method: as §1

[6] = Pharmacokinetics in Study Compound 1-002; format: in vivo; details: single oral doses, healthy men
Method: as §2, §4
Liquid-liquid extraction and HPLC/MS/MS was used to determine the concentration of Compound 1 in human plasma. An aliquot of the extract was injected onto an HPLC instrument that is coupled with a triple quadrupole mass spectrometer (Sciex API5500). […] The peak area of the product ion of Compound 1 was measured against the peak area of the product ion of the internal standard for determination of concentration.

[7] = tested on: subjects with clinically stable HCM; test: Study Compound 1-001 (MYK-461-001): SAD trial in HCM patients; format: in vivo, human; details: for LVOT Gradient Post-dose: upon provocation
Method: as §1
In Study MYK-461-001, single doses of up to 144 mg were administered to 15 subjects with HCM. […] In terms of causality assessment, there are no nonclinical or other clinical data to implicate Compound 1 in cardiac ion channel current modulation, or cardiac impulse generation or conduction. […] Other potential contributions to the event include chronic […] with metoprolol succinate 150 mg QD, and the observation that the subject inadvertently performed the Valsalva maneuver during the handgrip strength assessment immediately prior to the event.
LVOT obstruction was resolved in patients following a single dose of Compound 1, as shown in the results in Table 2. […] Each patient was administered single 96 mg dose of Compound 1. Both patients' gradients were resolved following dosing.

[8] = 2 mg/day for 4 weeks, preliminary
[9] = Cohort B (2-5 mg daily doses), mean ± SD
[10] = Cohort B, baseline to Week 12, n 10

CC(C)n1c(=O)cc(N[C@@H](C)c2ccccc2)[nH]c1=O [Compound 1, (S)-3-Isopropyl-6-((1-phenylethyl)amino) pyrimidine-2, 4(1H,3H)-dione]
Responders % ([1]; 12 mg single dose cohort): 50% | Responders n ([1]; 12 mg single dose cohort): 3/6 | Responders % ([1]; 24 mg single dose cohort): 83% | Responders n ([1]; 24 mg single dose cohort): 5/6 | Responders % ([1]; 48 mg single dose cohort): 100% | Responders n ([1]; 48 mg single dose cohort): 6/6 | mean reduction in LVEF at any time point relative to baseline ([1]; 48 mg single dose, healthy subjects): −6% | single dose associated with detectable reductions in LV contractility from baseline ([1]; 3 echocardiographic measures (LVEF, LVFS, LVOT VTI), healthy men): ≥ 12 mg | changes in systolic blood pressure or heart rate ([1]; any dose level 1 mg to 48 mg): No changes in systolic blood pressure (BP) or heart rate (HR) were detected | incidence of treatment-emergent AEs versus dose ([1]; single doses 1 mg to 48 mg): did not appear to increase with dose | tolerability ([1]; single doses 1 mg to 48 mg, oral suspension, healthy men): well tolerated, with no serious adverse events (SAEs), deaths, or withdrawals from study due to adverse events (AEs) reported | myocardial contractility, LV end-diastolic dimensions, blood pressure ([2]; acute or chronic administration): decreased myocardial contractility and increased LV end-diastolic dimensions while preserving systemic arterial blood pressure and, LV end-diastolic pressure | end-diastolic pressures and end-diastolic stiffness ([2]; versus acute effects of other negative inotropes): preserves end-diastolic pressures as well as the estimated (linear) end-diastolic stiffness despite marked increases in preload (EDV) | LV filling pressure and diastolic peak mitral annular velocity ([3]; 2 mg/day for 4 weeks, absence of a change in afterload): beneficial effects on LV filling pressure (↓E/e′ and NTpro-BNP) and in diastolic peak mitral annular velocity (e′) | LV systolic function at rest and immediately post-exercise [3, 8]: not affected | effect on LVOT rest and exercise gradients [3, 8]: consistent effect on LVOT rest and exercise gradients | NYHA functional class ([3]; 12 weeks of Compound 1, 4 weeks of washout (FIG. 21)): improvement in NYHA functional class in individuals after 12 weeks and the reversal of improvement after 4 weeks of washout | patients with >1.5 mL/kg/min improvement in pVO2 ([3]; Cohort B): *5 of 10 patients had >1.5 mL/kg/mm improvement in pVO2 | patients with improved NYHA Class ([3]; Cohort B): 8 of 10 and **Improved NYHA Class in 9 out of 10 patients | Resting Gradient Week 4 ([3]; Cohort B (2 mg/day), preliminary, mean ± SD, N 5, baseline 84 ± 76 (6)): 59 ± 61 mm Hg | Septal e′ Week 4 ([3]; Cohort B (2 mg/day), preliminary, mean ± SD, N 6, baseline 3.9 ± 1.1 (6)): 4.5 ± 1.4 | Mean e′ Week 4 ([3]; Cohort B (2 mg/day), preliminary, mean ± SD, N 6, baseline 4.7 ± 1.0 (6)): 5.7 ± 1.3 | Lateral e′ Week 4 ([3]; Cohort B (2 mg/day), preliminary, mean ± SD, N 6, baseline 5.4 ± 1.0 (6)): 7.0 ± 1.2 | E/e′ Week 4 ([3]; Cohort B (2 mg/day), preliminary, mean ± SD, N 6, baseline 14.0 ± 3.4 (6)): 10.7 ± 3.5 | Post-exercise Gradient Week 4 ([3]; Cohort B (2 mg/day), preliminary, mean ± SD, N 6, baseline 70 ± 45 (6)): 93 ± 56 mm Hg | Resting LVEF Week 4 ([3]; Cohort B (2 mg/day), preliminary, mean ± SD, N 6, baseline 71 ± 4 (6)): 73 ± 6% | Stroke Volume Week 4 ([3]; Cohort B (2 mg/day), preliminary, mean ± SD, N 6, baseline 73.3 ± 6.5 (6)): 77.8 ± 14.3 mL | Post-exercise LVEF Week 4 ([3]; Cohort B (2 mg/day), preliminary, mean ± SD, N 6, baseline 78 ± 9 (5)): 76 ± 3% | NT-pro BNP Week 4 ([3]; Cohort B (2 mg/day), preliminary, mean ± SD, N 7, baseline 2162 ± 3601 (8)): 1258 ± 1789 pg/mL | improvement in peak VO2 in 4 subjects ([3]; Cohort B (2-5 mg daily doses)): ≥ 2.9 mL/min/kg | Dyspnea numerical rating (signed change) [3, 9]: −3.0 ± 2.8 | NYHA Class (signed change) [3, 9]: −1.0 ± 0.5 | Peak VO2 (signed change) [3, 9]: +1.67 ± 2.3 mL/kg/min | Post-exercise peak LVOT gradient (signed change) [3, 9]: −25.0 ± 28.7 mmHg | Resting LVEF (signed change) [3, 9]: −5.5 ± 6.0% | Resting LVOT gradient (signed change) [3, 9]: −48.5 ± 48.0 mmHg | NT-proBNP Delta ([3]; Cohort B, baseline to Week 12, n 9): −1195 ± 2770 | Dyspnea score Delta [3, 10]: −3.0 ± 2.8 | E/e′ Delta [3, 10]: −1.3 ± 4.6 | LA Vol (index) Delta [3, 10]: −6 ± 12 mL/m^2 | LVEDV Delta [3, 10]: 6 ± 18 | Lateral e′ Delta [3, 10]: 0.3 ± 2.2 cm/s | Dyspnea score Week 12 ([3]; Cohort B, baseline 4.0 ± 2.6, n 10): 1.0 ± 0.7 | Lateral e′ Week 12 ([3]; Cohort B, baseline 5.9 ± 1.0, n 10): 6.1 ± 2.1 cm/s | E/e′ Week 12 ([3]; Cohort B, baseline 13.9 ± 3.5, n 10): 12.6 ± 4.1 | LA Vol (index) Week 12 ([3]; Cohort B, baseline 41 ± 20, n 10): 35 ± 12 mL/m^2 | LVEDV Week 12 ([3]; Cohort B, baseline 95 ± 15, n 10): 101 ± 25 | NT-proBNP Week 12 ([3]; Cohort B, baseline 1834 ± 3209, n 9): 826 ± 1063 | peak VO2 ([3]; by week 12 (FIG. 23)): improvement in peak VO2 by week 12 | dyspnea ([3]; throughout the trial, improvement reversed after 4 weeks of washout (FIG. 22)): rapid improvement in peak in dyspnea | concentration at 12 weeks [4]: > 1000 ng/mL | SAEs [5]: No SAEs reported | severity of adverse events [5]: all mild to moderate | number of AEs reported ([5]; in 33 subjects): 54 | half-life ([6]; male, human, plasma, read-out: mean elimination half-life (converted)): ~192 h | pharmacokinetic (PK) profile [6]: rapid absorption and subsequent distribution followed by a long elimination phase | Responders % ([7]; 48 mg single dose cohort): 50% | Responders n ([7]; 48 mg single dose cohort): 2/4 | Responders % ([7]; 96 mg single dose cohort): 83% | Responders n ([7]; 96 mg single dose cohort): 5/6 | Responders % ([7]; 144 mg single dose cohort): 80% | Responders n ([7]; 144 mg single dose cohort): 4/5 | LVOT gradients following Valsalva after dosing ([7]; 2 subjects, single 96 mg dose): < 10 mm Hg | LVOT Gradient % Decrease ([7]; Patient 1, single 96 mg dose): (79%) | LVOT Gradient Post-dose ([7]; Patient 1, single 96 mg dose, pre-dose 42): 9 mmHg | LVOT Gradient % Decrease ([7]; Patient 2, single 96 mg dose): (82%) | LVOT Gradient Post-dose ([7]; Patient 2, single 96 mg dose, pre-dose 28): 5 mmHg | proof of mechanism: LV contractility ([7]; all subjects with HCM, single doses 48-144 mg): reduced LV contractility by at least 1 of 3 independent echocardiographic measures | number of adverse events (AEs) ([7]; human, in vivo): 35 | severity of adverse events ([7]; human, in vivo): all mild to moderate | tolerability ([7]; single doses of up to 144 mg, 15 subjects with HCM): well tolerated without deaths, withdrawals due to AEs, or dose-related treatment-emergent AEs, except for 1 of 5 subjects who received the 144 mg dose | LVOT obstruction after a single dose ([7]; two subjects with LVOT pressure gradient, single 96 mg dose): resolved
